Patent US8815891B2, “Tricyclic derivative or pharmaceutically acceptable salts thereof, preparation method thereof, and pharmaceutical composition containing the same” (Je Il Pharmaceutical Co., Ltd., priority 2008, dated 2014)
Structures can show the parent of a compound that is named as a salt.

Assays:
[1] = target: PARP-1 enzyme (Homo sapiens (Human), UniProt P09874); assay: Poly(ADP-ribose)polymerase [PARP-1] enzyme inhibitory activity (Trevigen PARP Assay kit); format: biochemical; conditions: read-out: PARP-1 Inhibitory activity IC50
Sequence of PARP-1 enzyme (Homo sapiens (Human), UniProt P09874) (P09874 whole entry): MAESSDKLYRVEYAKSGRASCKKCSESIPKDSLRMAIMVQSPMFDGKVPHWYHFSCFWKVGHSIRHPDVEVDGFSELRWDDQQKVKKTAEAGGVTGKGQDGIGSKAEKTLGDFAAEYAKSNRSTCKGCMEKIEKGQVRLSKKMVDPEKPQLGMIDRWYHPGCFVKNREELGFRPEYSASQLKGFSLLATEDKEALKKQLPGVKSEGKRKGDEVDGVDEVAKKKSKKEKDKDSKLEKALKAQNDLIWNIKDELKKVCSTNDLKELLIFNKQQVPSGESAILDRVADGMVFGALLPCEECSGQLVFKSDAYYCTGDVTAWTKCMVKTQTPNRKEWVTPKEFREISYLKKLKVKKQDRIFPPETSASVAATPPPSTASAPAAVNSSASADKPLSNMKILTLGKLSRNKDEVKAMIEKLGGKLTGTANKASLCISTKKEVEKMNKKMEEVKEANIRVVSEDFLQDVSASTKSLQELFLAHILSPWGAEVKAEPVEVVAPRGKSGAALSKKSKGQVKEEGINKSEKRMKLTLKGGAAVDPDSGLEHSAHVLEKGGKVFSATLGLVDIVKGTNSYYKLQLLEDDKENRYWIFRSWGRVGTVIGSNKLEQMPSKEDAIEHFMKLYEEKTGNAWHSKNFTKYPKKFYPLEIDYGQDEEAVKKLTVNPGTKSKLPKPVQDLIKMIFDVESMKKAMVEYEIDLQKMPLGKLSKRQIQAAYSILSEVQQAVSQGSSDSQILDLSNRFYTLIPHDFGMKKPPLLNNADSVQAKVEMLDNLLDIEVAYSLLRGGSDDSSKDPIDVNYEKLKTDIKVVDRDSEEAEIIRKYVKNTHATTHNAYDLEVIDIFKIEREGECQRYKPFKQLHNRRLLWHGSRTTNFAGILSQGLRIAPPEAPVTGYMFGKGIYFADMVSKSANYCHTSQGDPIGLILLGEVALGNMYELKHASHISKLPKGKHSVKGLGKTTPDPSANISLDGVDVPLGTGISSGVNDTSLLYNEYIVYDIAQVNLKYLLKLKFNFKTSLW
Summary of the method: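 On histone-coated plates, PARP-1 (0.12 unit/well) reacted with compound for 30 min at 25 °C in a 2× cocktail of 1.95 mM NAD+, 50 μM biotinylated NAD+ and activated DNA (Tris pH 8.0, 25 mM MgCl2). Biotin-ribosylated histone was detected with streptavidin-HRP and TACS-Sapphire substrate, stopped with HCl and read at 450 nm.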

[2] = target: PARP-1 enzyme (Cricetulus griseus (Chinese hamster) (Cricetulus barabensis griseus), UniProt Q9R152); assay: Intracellular PARP inhibitory activity (NAD(P)H released by MMS-treated CHO-K1 cells); format: cell-based
Sequence of PARP-1 enzyme (Cricetulus griseus (Chinese hamster) (Cricetulus barabensis griseus), UniProt Q9R152) (Q9R152 whole entry): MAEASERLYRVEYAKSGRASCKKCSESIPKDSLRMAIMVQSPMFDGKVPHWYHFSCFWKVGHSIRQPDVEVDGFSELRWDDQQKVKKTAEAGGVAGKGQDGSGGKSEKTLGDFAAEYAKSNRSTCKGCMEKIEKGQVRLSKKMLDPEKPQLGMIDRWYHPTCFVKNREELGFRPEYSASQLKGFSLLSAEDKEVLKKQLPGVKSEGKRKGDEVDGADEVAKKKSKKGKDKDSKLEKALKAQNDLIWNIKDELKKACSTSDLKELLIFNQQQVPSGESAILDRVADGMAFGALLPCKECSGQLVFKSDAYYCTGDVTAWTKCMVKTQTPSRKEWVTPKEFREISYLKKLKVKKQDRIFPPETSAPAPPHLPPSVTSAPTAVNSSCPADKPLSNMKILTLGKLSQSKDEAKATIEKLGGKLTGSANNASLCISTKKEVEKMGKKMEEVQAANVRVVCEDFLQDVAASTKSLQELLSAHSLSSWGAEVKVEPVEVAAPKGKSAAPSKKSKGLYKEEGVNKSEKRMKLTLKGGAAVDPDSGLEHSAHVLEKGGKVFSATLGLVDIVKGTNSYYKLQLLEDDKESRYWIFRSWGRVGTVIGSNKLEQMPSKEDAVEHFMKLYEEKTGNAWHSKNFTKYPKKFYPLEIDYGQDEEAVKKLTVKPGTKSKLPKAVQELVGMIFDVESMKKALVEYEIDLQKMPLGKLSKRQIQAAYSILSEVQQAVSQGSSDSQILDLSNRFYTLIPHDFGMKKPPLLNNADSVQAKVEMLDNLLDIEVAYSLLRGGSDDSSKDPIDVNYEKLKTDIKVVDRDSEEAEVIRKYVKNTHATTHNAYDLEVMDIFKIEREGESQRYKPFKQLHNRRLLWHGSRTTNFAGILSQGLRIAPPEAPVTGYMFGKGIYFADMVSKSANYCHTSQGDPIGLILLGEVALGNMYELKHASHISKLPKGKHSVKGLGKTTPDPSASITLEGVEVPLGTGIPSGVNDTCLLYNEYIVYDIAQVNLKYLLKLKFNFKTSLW

Work on `COc1cc(CN2CCOCC2)cc2[nH]c(=O)c3c(c12)NCCC3` [Example 74, 10-Methoxy-8-(morpholinomethyl)-1,2,3,4-tetrahydrobenzo[h][1,6]naphthyridine-5(6H)-one dihydrochloride] yielded an IC50 [1] of 230 nM and an IC50 [2] of 1480 nM.
